From patent US9856256B2, “Pyridino[1,2-A]pyrimidone analogue used as P13K inhibitor” (CHIA TAI TIANQING PHARMACEUTICAL GROUP CO., LTD., priority 2014, dated 2018)

How the values were obtained:
mTOR = target: T1, mTOR (Homo sapiens, UniProt P42345); assay: In vitro enzyme activity assay, mTOR kinase (32P-ATP, P81 filter-binding); assay type: biochemical; conditions: 4EBPI substrate, 10 μM ATP; read-out: mTOR enzyme activity_IC50
T1 construct: recombinant human mTOR fragment (amino acid 1360-2549, molecular weight=163.9 kDa); GST-tag (N); host or cells: insect cells
T1 sequence (P42345 1360-2549): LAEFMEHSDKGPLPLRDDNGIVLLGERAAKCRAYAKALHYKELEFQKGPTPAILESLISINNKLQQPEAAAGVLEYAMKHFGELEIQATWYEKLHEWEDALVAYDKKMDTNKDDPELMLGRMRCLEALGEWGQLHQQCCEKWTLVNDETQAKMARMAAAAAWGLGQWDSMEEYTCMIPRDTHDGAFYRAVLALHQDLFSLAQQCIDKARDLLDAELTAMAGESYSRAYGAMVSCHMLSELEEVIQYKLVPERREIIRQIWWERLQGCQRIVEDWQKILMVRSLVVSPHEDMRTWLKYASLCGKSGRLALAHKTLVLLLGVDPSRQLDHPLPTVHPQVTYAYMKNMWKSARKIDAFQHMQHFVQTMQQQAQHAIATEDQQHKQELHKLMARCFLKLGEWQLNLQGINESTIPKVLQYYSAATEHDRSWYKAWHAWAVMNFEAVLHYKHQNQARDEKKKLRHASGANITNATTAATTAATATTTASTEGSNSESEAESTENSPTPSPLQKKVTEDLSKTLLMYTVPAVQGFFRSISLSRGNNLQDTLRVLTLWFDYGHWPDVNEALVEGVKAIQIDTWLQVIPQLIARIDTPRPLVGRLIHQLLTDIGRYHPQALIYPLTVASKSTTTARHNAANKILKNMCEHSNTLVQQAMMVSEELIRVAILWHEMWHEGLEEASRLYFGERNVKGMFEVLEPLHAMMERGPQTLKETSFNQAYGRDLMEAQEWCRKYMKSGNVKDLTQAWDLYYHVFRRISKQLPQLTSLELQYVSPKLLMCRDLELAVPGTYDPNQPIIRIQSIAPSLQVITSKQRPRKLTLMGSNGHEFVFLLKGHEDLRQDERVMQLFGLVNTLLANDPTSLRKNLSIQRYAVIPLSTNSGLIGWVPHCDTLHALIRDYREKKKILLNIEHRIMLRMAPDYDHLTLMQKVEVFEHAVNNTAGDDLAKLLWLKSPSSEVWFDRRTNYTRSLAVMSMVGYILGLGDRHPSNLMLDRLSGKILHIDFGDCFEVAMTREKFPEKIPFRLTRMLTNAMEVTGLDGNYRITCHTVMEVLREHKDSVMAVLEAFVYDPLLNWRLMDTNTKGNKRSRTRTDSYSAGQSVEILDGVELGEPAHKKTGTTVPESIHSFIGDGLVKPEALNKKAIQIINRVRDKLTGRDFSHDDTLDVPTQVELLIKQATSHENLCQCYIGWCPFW
Procedure: mTOR kinase activities of the compounds in all the examples of the present invention were tested via the following method.
Reaction buffer: 20 mM Hepes (pH 7.5), 10 mM MgCl2, 2 mM MnCl2, 1 mM EGTA, 0.02% Brij35, 0.02 mg/mL BSA, 0.1 mM Na3VO4, 2 mM DTT, and 2% DMSO.
Enzyme for reaction: recombinant human mTOR fragment (amino acid 1360-2549, molecular weight=163.9 kDa) with a GST-tag at the N-terminus, which was expressed in insect cells.
Substrate for reaction: recombinant full-length human 4EBPI (molecular weight=13.6 kDa) with a His-tag at the N-terminus, which was expressed in bacteria.
Reaction conditions: […] 4EBPI and 10 μM ATP.
1. adding the reaction substrate and other reaction factors into the freshly prepared reaction buffer;
(§1) 2. adding the kinase into the substrate reaction solution, and mixing gently;
3. transferring the compound dissolved in 100% DMSO into the kinase reaction solution by using Acoustic technique (Echo550; nanoliter rang), and incubating at room temperature for 20 minutes;
4. adding an appropriate concentration of ^32P-ATP into the reaction system;
5. incubating at room temperature for 2 hours;
6. detecting the kinase activity by using P81 filter-binding method.

MCF-7 cells = assay: In vitro cell activity assay (MCF-7, insulin stimulation, ELISA-One); assay type: cell-based; conditions: Homo sapiens, MCF7, compound 2 hours in serum-free media, then 10 μg/ml insulin 30 min
Procedure: Experimental Steps and Method Comprise:
1. MCF-7 cells were seeded at 2,5000 cells per well in a 96 well tissue culture plate in a complete media containing 10%0/FBS.
3. The cells were treated with 10 μg/ml insulin in serum-free media for 30 min.
4. During waiting period, lysis solution was prepared as below:
a) Enhancer Solution needs to be taken out from the refrigerator to be thawed.
b) Concentrated lysis solution was prepared by diluting Enhancer Solution 10-fold in 5× Lysis Buffer.
c) Lysis solution was prepared by diluting concentrated lysis solution 5-fold with ddH2O.
5. Any media were removed from wells and the wells were rinsed with PBS once quickly.
6. 50 μL of freshly prepared lysis solution were added into each well, with shaking at room temperature for 10 min.
7. After confirming that all cells get detached from wells, the lysis solution together with the cell debris was transferred to 1.5 ml tubes.
8. The tubes were vortexed several times to thoroughly mix the lysis solution and cells, and then, and then the mixture was centrifuged at 12,000 g for 10 min at 4° C.;
9. The desired number of ELISA-One microplate strips was determined. Unused strips were removed from frame and returned to storage pouch and seal. Wells for use in the assay were rinsed with 200 μL ddH2O to remove preservatives prior to use.
10. 50 μL of antibody mixture solution was added into each well. (Antibody mixture solution was prepared by mixing capture antibody reagent and detection antibody reagent equally, avoid vortexing)
11. 25 μL of lysate was added into each well of the ELISA-One microplate. The microplate was covered with adhesive seal and incubated for 1 hour at room temperature on a microplate shaker.
12. Each well was washed with 150 μL 1× wash buffer 3 times. After final wash, any remaining wash buffer was removed from wells. If necessary, leave microplate in 1× Wash Buffer for up to 30 min, until substrate mixture solution has been prepared.
13. The substrate mixture solution should be prepared when used, 100 μL of substrate mixture solution was added into each well, and then the microplate was sealed with tin foil and incubated at room temperature for 10 minutes on a microplate shaker.
14. 10 μL of stop solution was added into each well, and then mixed slightly (5-10 seconds) on a microplate shaker.
15. Corresponding ELISA-One filter set was installed to read the fluorescence signal intensity.

PI3K (p110α) = PI3K (p110α) (Homo sapiens, UniProt P42336); assay: In vitro enzyme activity assay, PI3K (p110α) kinase, Method I (HTRF); assay type: biochemical; design: recombinant full-length human PI3K p110α subunit; His-tag (N); host or cells: insect cells; conditions: 10 μM PI(4,5)P2 and 10 μM ATP), read-out: PI3K (p110α) enzyme activity_IC50
Sequence of PI3K (p110α) (P42336 whole entry): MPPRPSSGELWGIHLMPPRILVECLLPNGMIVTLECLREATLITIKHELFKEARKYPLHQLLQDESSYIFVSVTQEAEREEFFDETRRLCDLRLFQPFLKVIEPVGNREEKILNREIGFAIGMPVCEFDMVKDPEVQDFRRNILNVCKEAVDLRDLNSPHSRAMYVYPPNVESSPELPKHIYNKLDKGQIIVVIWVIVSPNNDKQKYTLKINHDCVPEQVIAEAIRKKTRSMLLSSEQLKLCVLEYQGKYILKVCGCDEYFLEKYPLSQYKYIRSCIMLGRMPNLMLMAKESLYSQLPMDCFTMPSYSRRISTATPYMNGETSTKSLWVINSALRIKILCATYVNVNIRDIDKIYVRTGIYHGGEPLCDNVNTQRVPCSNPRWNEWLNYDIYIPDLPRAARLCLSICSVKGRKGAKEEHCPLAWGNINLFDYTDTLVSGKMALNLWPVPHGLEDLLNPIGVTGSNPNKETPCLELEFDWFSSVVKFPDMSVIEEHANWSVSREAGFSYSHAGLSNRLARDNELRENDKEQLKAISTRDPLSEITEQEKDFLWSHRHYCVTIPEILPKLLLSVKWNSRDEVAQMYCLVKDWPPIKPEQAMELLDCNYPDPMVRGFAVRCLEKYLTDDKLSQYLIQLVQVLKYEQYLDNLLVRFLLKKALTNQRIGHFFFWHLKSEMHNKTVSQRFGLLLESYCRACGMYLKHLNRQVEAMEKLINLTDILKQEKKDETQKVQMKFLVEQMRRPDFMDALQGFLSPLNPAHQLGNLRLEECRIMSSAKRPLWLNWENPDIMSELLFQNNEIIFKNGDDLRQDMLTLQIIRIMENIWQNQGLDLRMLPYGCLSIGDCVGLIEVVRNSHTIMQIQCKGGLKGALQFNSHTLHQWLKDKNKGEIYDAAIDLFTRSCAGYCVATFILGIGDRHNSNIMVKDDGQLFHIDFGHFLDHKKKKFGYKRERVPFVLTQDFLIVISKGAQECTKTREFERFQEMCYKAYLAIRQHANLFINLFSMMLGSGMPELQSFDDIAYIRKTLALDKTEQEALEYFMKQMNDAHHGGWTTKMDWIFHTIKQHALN
Sequence of PI3K (p110α) (P27986 whole entry partner): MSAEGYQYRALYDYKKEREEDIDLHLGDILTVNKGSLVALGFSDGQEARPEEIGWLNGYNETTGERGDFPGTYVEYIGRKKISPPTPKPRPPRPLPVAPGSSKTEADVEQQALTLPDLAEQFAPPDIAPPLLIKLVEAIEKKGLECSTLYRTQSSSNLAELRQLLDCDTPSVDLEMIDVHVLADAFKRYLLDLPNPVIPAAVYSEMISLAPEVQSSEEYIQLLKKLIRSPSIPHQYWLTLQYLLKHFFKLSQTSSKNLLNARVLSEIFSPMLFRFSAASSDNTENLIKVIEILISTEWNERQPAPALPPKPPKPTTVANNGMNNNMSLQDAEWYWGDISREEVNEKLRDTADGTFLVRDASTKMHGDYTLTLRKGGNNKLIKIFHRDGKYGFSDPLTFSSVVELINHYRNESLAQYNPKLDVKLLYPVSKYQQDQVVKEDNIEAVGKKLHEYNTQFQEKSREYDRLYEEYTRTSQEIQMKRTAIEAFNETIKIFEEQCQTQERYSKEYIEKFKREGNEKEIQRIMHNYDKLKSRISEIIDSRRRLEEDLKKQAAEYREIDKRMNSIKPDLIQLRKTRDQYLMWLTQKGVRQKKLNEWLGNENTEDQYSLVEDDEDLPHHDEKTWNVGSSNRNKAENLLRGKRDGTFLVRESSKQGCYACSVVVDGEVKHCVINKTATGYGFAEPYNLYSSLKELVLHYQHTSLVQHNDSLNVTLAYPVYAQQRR
Procedure: PI3K (p110α) kinase activities of the compounds in all the examples of the present invention were tested via the following two methods, respectively.
Reaction buffer: HEPES 50 mM (pH7.0), NaN3 0.02%, BSA 0.01%. Orthovanadate 0.1 mM, and 1% DMSO.
Detection buffer: HEPES 10 mM (pH7.0), BSA 0.02%, KF 0.16 M, and EDTA 4 mM.
Enzymes for reaction: recombinant full-length human PI3K p110α subunit (molecular weight=128.4 kDa) with a His-tag at the N-terminus and unlabeled p85α subunit (molecular weight=83.6 kDa), which were expressed in insect cells.
Substrate for reaction: […] PIP2 substrate (PI(4,5)P2).
Reaction conditions: 10 μM PI(4,5)P2 and 10 μM ATP.
1. preparing the substrate in the freshly prepared reaction buffer;
as §1
3. transferring the compound dissolved in 100% DMSO into the kinase reaction solution by using Acoustic technique (Echo550; nanoliter rang), and incubating at room temperature for 10 minutes;
4. adding an appropriate concentration of ATP into the reaction system,
5. incubating at 30° C. for half an hour;
6. terminating the reaction by adding a stop solution;
7. adding the detection buffer and incubating overnight; and
8. detecting by using homogeneous time-resolved fluorescence (HTRF) method (excitation wavelength of 320 nm, measuring the ratio of the emission wavelength readings at 615 nm and 665 nm).

Q: How did the IC50 (mTOR) turn out when `COc1ncc(-c2ccc3ncc(OCCN(C)C)c(=O)n3c2)cc1NS(=O)(=O)c1sc(C)nc1C` [Compound 35] was run?
A: 50 to 200 nM

Q: What about the IC50 (MCF-7 cells) of the same molecule?
A: ≤ 50 nM

Q: What about the IC50 (PI3K (p110α)) of the same molecule?
A: ≤ 1 nM

Q: `COc1ncc(-c2ccc3ncc(OCCN(C)C)c(=O)n3c2)cc1NS(=O)(=O)c1sccc1C` [Compound 36] was tested. Which IC50 (mTOR) did it give?
A: > 200 nM

Q: What about the IC50 (MCF-7 cells) of the same molecule?
A: ≤ 50 nM

Q: And the IC50 (PI3K (p110α))?
A: ≤ 1 nM

Q: Which results are given for `COc1ncc(-c2ccc3ncc(OCCn4cccn4)c(=O)n3c2)cc1NS(=O)(=O)c1ccc(F)cc1F` [Compound 37, 2,4-Difluoro-N-(2-methoxy-5-(4-oxo-3-(2-pyrazol-1-yl-ethoxy)pyrido[1,2-a]pyrimidin-7-yl)pyridin-3-yl)benzenesulfonamide]?
A: IC50 (mTOR): 50 to 200 nM; IC50 (MCF-7 cells): 100 to 250 nM; IC50 (PI3K (p110α)): ≤ 1 nM

Q: Which IC50 (mTOR) does the source give for `COc1ncc(-c2ccc3ncc(OCCN4CCCC4)c(=O)n3c2)cc1NS(=O)(=O)c1ccc(F)cc1F` [Compound 42] here?
A: > 200 nM

Q: And the IC50 (MCF-7 cells)?
A: 100 to 250 nM

Q: What about the IC50 (PI3K (p110α)) of the same molecule?
A: ≤ 1 nM

Q: How did the IC50 (mTOR) turn out when `COc1ncc(-c2ccc3ncc(OCCN(C)C)c(=O)n3c2)cc1NS(=O)(=O)c1ccc(F)cc1F` [Compound 43] was run?
A: > 200 nM

Q: And the IC50 (MCF-7 cells)?
A: 50 to 100 nM

Q: What about the IC50 (PI3K (p110α)) of the same molecule?
A: ≤ 1 nM
